What was measured:
[1] = system: bladder, kidney and liver homogenates; test: ACNRB transgene expression by RT-PCR after intravesical administration; type: in vivo, mouse; settings: ACNRB 4×10^10 PN/mL in 22% (v/v) ethanol or 3 mM Big CHAP versus VPBS, 48 hours
Method: After the virus was retained in the bladder for 45 minutes, the animals were permitted to recover and void. […] Following amplification (30 cycles) RT-PCR products were separated on a 10% polyacrylamide gel, stained with ethidium bromide, and photographed. […] Untreated samples and bladder samples without the reverse transcriptase (RT) provided controls for contaminating DNA.
The instilled material was retained in the bladder for approximately 45 minutes, and animals were permitted to recover from the procedure. Mice were sacrificed 1, 2, 3, 4, 5, 6, 7, and 14 days after administration (N=4/time) for analysis. Bladders, livers, and kidneys were harvested and snap frozen in liquid nitrogen for subsequent analysis.
After the virus was retained in the bladder for 45 minutes, the animals were permitted to recover. […] Transgene expression was determined using RT-PCR. Tissues were rinsed in RNAse free water, homogenized, digested in Tri-Reagent (Molecular Research Center), and total cellular RNA extracted. […] RT-PCR was performed in the Perkin Elmer 9600 GeneAmp PCR System. Cycling conditions were 10 min at 65° C., 8 min at 50° C., 5 min at 95° C. 32 cycles of PCR were performed, each cycle consisting of 30 sec at 94° C., 30 sec at 58° C., and 30 sec at 72° C. The 32nd cycle included a 10 min elongation step at 72° C. to ensure full extension of incomplete DNA fragments.

bladder tissue = test: Cystitis evaluation of formulations in mice, bladder histopathology; settings: 80 μL intravesical, 7-day interval; 7 mM Big CHAP, 0.05 mM TRITON X-100 or 22% ethanol
Method: The formulations were administered intravesically in a volume of 80 μL, and animals were observed over a 7-day interval. After sacrifice, bladders were paraffin-embedded, sectioned, and stained with hematoxylin and eosin for pathologic evaluation.

bladder tumor tissue = test: Gene transfer to BBN-induced bladder tumors (transitional cell carcinoma model); type: in vivo, rat; settings: rAd-βgal 1×10^11 PN/ml in 4 mM Big CHAP compared to VPBS, 48 hr
Method: Because initial investigations focused on animals with intact bladder epithelium, evaluated adenovirus mediated gene transfer in an animal model of transitional cell carcinoma was also studied. Tumors were induced in male Fisher rats by addition of 0.05% BBN in the drinking water for six months. rAd-βgal (1×10^11 PN/ml), formulated in 4 mM Big CHAP (CALBIOCHEM®) or VPBS was instilled into the bladder for 45 minutes by direct injection. β-gal expression was evaluated 48 hr after treatment. Consistent with earlier experiments using non-tumor bearing animals, gene transfer to tumor tissue was improved with the Big CHAP (CALBIOCHEM®) formulation compared to the VPBS formulation (FIG. 10).
Gene transfer of rAd carrying the p53 gene (rAd-p53) (Wills et al., Human Gene Therapy 5:1079-1088 (1994)) was also tested in this animal model of bladder cancer. Briefly, bladder tumors were induced in female Fisher rates (Charles River) by addition of 0.05% BBN (N-butyl-N-N(4-hydroxybutyl)nitrosamine) in the drinking water for three months. rAd-p53 (1×10^11 PN/ml) was formulated in 7 mM Big CHAP (CALBIOCHEM®). Under isoflurane anesthesia a catheter (24G) was inserted into the bladder for administration. rAd-p53 was instilled into the bladder for 45 minutes. The animals were then allowed to recover from anesthesia. […] No staining was detected in tumor tissue from untreated animals.

pig urothelium = test: rAd-βgal gene transfer in chronically catheterized adult pig bladder; type: in vivo
Method: To simulate volumes expected for clinical investigation, the 7 mM Big CHAP (CALBIOCHEM®) formulation was tested in a chronically catheterized adult pig model in collaboration with SPRI Drug Safety and Metabolism. rAd-βgal (1×10^11 PN/ml) was formulated in VPBS or 7 mM Big CHAP (CALBIOCHEM®). A volume of 50 ml was injected via the catheter into the bladder of the conscious animals. The instilled material was retained for 2 hr. The animals were sacrificed 48 hr later, and a central section of the bladder was harvested and stained for β-galactosidase expression.

bladder epithelium [2] = test: rAd-βgal gene transfer to bladder epithelium in detergent formulations, Xgal staining score and gross pathology
Method: rAd-βgal was formulated in different detergents at their critical micellization concentration to evaluate efficiency of gene transfer to the bladder epithelium. Female rats (about 200 g b/w, Harlan Sprague Dawley) were anesthetized with isoflurane and received a single intravesical administration of rAd-βgal (1×10^11 PN/ml) in different detergent formulations (see Table I). Before instillation, bladders were flushed with PBS and then emptied. rAd-βgal was then instilled in a volume of 0.5 ml. The instilled solution was retained in the bladder for 45 minutes. The bladders were then flushed with PBS, and the animals were permitted to recover from the procedure. 48 hours after administration, the rats were sacrificed, the bladders harvested, and fixed in formalin. After fixation, the bladders were opened longitudinally so that the urothelium was exposed to the chromogen (Xgal), that is converted to a blue color, if reporter gene (β-galactosidase) expression is present. The luminal epithelial surface of the whole bladder was photographed an blue staining scored: + (minimal staining), ++ (moderate staining), +++ intense staining covering the whole bladder epithelial surface.
Briefly, in anaesthetized female rats rAd-βgal (1×10^11 PN/ml) was administered into the bladder via an intravesical catheter. rAd-βgal was formulated in different concentrations of Big CHAP (CALBIOCHEM®). A volume of 0.5 ml was injected and remained instilled in the bladder for 45 minutes. The animals were sacrificed 48 hours later, the bladder fixed in 4% formalin/glutaraldehyde, opened longitudinally, and the β-galactosidase enzyme activity measured using Xgal substrate. The intensity of blue staining correlates with the βgal-transgene expression.
Effects of higher recombinant adenovirus concentrations were also tested. Briefly, in anaesthetized female rats different concentrations of rAd-βgal, formulated in 7 mM Big CHAP (CALBIOCHEM®) were administered into the bladder via an intravesical catheter. The animals were sacrificed 48 hours later, the bladder fixed in 4% formalin/glutaraldehyde, opened longitudinally, and Xgal stained.

bladder epithelium [3] = test: Effect of Big CHAP sources, purified Big CHAP and impurities on rAd-βgal gene transfer to bladder epithelium; type: in vivo, rat; settings: Big CHAP at 6 mg/ml
Method: Alternate commercial sources of Big CHAP (BC) were tested for the ability to enhance rAd (recombinant adenovirus) mediated gene transfer and expression, essentially according to the method described above in Example 8.
The results are depicted in FIG. 17.
rAd-βgal was formulated in 30 mg/ml of the column chromatography purified material of both BCs and gene transfer to the bladder epithelium tested as described above.
Three impurities of BC (CALBIOCHEM®) were detected by TLC (FIG. 15) and isolated by column chromatography for gene transfer studies. Impurity I and a mixture of impurity II and impurity III were diluted in VPBS (0.6 mg/ml or 6 mg/ml) to test their efficiency in improving rAd mediated gene transfer to the bladder epithelium. […] Positive control formulation (BC, CALBIOCHEM®, upper panel, left), and the negative control formulations (BC—CALBIOCHEM®, column chromatography purified and BC—Sigma) were used at a concentration of 6 mg/ml (upper panel, right).
In this experiment, 10 mg/ml of BC (Sigma, FIG. 20 upper middle panel) was reconstituted with Impurity III (upper right panel), impurity II (lower left panel), or synthesized analog of impurity III (lower right panel). rAd-βgal, 1×10^11 PN/ml, was prepared in the spiked formulations and administered intravesically as described above.
Calbiochem Big CHAP was fractionated by column chromatography to obtain essentially pure impurities “1”, “2”, and “3” for biological testing as well as structural analysis.

## C[C@H](CCC(=O)N(CCCNC(=O)[C@H](O)[C@@H](O)[C@H](O)[C@H](O)CO)CCCNC(=O)[C@H](O)[C@@H](O)[C@H](O)[C@H](O)CO)[C@H]1CC[C@H]2[C@@H]3[C@H](O)C[C@@H]4C[C@H](O)CC[C@]4(C)[C@H]3C[C@H](O)[C@]12C [Big CHAP (CALBIOCHEM®), N,N,bis-(3-D-gluconamidopropyl)-cholamide]
[1]
  ACNRB expression in bladder (RT-PCR): enhanced expression
Bladder tissue
  macrophage infiltration into the bladder tissue / cystitis: Only a slight macrophage infiltration
Bladder tumor tissue
  gene transfer to tumor tissue: improved
Pig urothelium; 7 mM Big CHAP
  transduction of epithelial layers (histologic evaluation): transduction of several epithelial layers
Pig urothelium; rAd-βgal 1×10^11 PN/ml, 7 mM Big CHAP compared to VPBS, 50 ml, 2 hr, 48 hr
  intensity of gene expression (β-galactosidase): An increase in the intensity of gene expression
Bladder epithelium [2]; 17.5 mM Big CHAP
  cystitis: induced cystitis in some of the animals tested
  gene transfer or expression: did not notably improve gene transfer or expression
Bladder epithelium [2]; 3.5-7 mM Big CHAP
  gene transfer: significantly improved gene transfer
Bladder epithelium [2]; Big CHAP formulation that enhanced gene transfer
  cystitis: minimal cystitis
Bladder epithelium [2]; detergents at their critical micellization concentration
  gene transfer to the bladder epithelium (Table I): enhanced gene transfer dramatically
Bladder epithelium [2]; rAd-βgal 1×10^11 PN/ml, different concentrations of Big CHAP
  gene transfer to the epithelium, dependence on Big CHAP concentration: concentration-dependent increase of gene transfer
Bladder epithelium [2]; rat, in vivo
  β-galactosidase expression, 3.5 mM compared with 7 mM formulation: similar
Bladder epithelium [3]; listed as BC (CALBIOCHEM®)
  rAd mediated gene transfer and expression: did substantially enhance gene transfer and expression
Bladder epithelium [3]; listed as Big CHAP from CALBIOCHEM®
  rAd mediated gene transfer and expression: greater enhancement of gene transfer

— patent US7534769B2, “Compositions and methods for enhancing delivery of therapeutic agents to cells” (Canji, Inc., priority 1996, dated 2009)
